Data: patent US11103605B2, “PET-imaging immunomodulators” (BRISTOL-MYERS SQUIBB COMPANY, priority 2016, dated 2021)

Target: T1, PD-L1 (Homo sapiens, UniProt Q9NZQ7)
T1 construct: Human lung tumor tissues were embedded in OCT and chilled in 2-methylbutane; from tissue; host or cells: human non-small cell lung cancer biopsy sections; L2987 (hPD-L1+) and HT-29 (hPD-L1-) human xenograft sections grown in mice
Assay: In vitro autoradiography on human lung tumor and xenograft tissue sections
Assay type: binding
Conditions: 0.25 nM radiotracer, unlabelled peptide 0.1 nM, 1 nM, 10 nM
Description: Human lung tumor tissues were embedded in OCT and chilled in 2-methylbutane for 2-5 minutes until frozen. Samples were stored in −80° C. degree freezer until use. Human xenograft tissues were also included in the assay. […] Once resulting xenograft tumors reached appropriate size (approx. 200-300 mm^3), mice were anesthetized with 2% isoflurane and sacrificed via cervical dislocation. Fresh tumor tissues were excised, immersed into OCT and chilled in 2-methylbutane for 2-5 minutes until frozen. The tissues were then wrapped in foil/ZIPLOC® bag and stored at −80° C. until use. For all tissues (human lung tumor and xenografts) sections of 5 μm thickness (collected as 2 sections/slide) were cut using a cryostat, thaw-mounted on glass microscope slides, and allowed to air dry for approximately 30 minutes. Blocking studies with cold (unlabelled) peptide at 0.1 nM, 1 nM, and 10 nM respectively. The individual slides, 1 slide per concentration, were transferred to glass slide incubation chambers for incubation. […] Autoradiography signals from tissue-associated radioactivity were quantified from these ROIs. The apparent displacement of the [^18F]labelled macrocyclic PD-L1 peptide radiotracer when compared to the total binding sections was determined for 3 different concentrations (0.1 nM, 1 nM, and 10 nM) of unlabeled peptide in both human lung tumor sections as well as human xenograft sections. […]

T1 sequence (Q9NZQ7 19-290): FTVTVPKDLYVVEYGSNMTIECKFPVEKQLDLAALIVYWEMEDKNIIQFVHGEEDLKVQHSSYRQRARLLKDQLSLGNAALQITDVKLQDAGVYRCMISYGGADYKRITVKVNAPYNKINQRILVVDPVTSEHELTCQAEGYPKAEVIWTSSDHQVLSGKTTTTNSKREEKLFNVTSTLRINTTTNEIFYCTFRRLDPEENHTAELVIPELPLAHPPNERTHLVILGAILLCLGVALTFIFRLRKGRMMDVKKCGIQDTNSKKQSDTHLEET

## CCCC[C@H]1C(=O)N(C)[C@@H](CCCC)C(=O)N[C@@H](CC(C)C)C(=O)N[C@H](C(=O)NCC(=O)N[C@@H](Cc2cn(CCOCCOCCOCCOc3cccnc3[18F])nn2)C(=O)O)CSCC(=O)N[C@@H](Cc2ccc(O)cc2)C(=O)N(C)[C@@H](C)C(=O)N[C@@H](CC(N)=O)C(=O)N2CCC[C@H]2C(=O)N[C@@H](CN)C(=O)N[C@@H](CC(C)C)C(=O)N2C[C@H](O)C[C@H]2C(=O)N[C@@H](Cc2c[nH]c3ccccc23)C(=O)N[C@@H](CCN)C(=O)N[C@@H](Cc2cn(CC(=O)O)c3ccccc23)C(=O)N1C [[^18F]labelled macrocyclic PD-L1 peptide]
  displacement of radiotracer by unlabelled peptide: dose dependent displacement
